# Assay results taken from patent publication US20240167005A1, “MODIFIED SHIGELLA APYRASE AND USES THEREOF” (APIRAYS BIOSCIENCES AB, priority 2021, published 2024).
# Experiments:
# [1] = biological target: Shigella flexneri apyrase (ApiOne, SEQ ID NO: 1) ApiTwo mutant L66V (Shigella flexneri, UniProt Q59909, L66V); assay: Affinity towards ATP, L66V; format: biochemical; details: 50 mM Tris-HCl pH 7.5, 37° C., 20 min, 500 ng enzyme
# Text: However, not all reactions successfully generated PCR products by agarose gel electrophoresis. The successful mutations were transformed into the expression host and proteins were expressed and purified to homogeneity by affinity chromatography.
# Other substrates like 2-Glycerophosphate, Pyridoxal phosphate and phenyl phosphate were not hydrolysed by the mutants (Table 2 and FIG. 8A-B).
# (§1) Respective colorimetric/fluorescence assays (mentioned above).
# [2] = biological target: Shigella flexneri apyrase, mutant apyrase of Example 1, SEQ ID NO: 3 (S50N, F54V, G63R, L66V, N70Q, E77V, A791, D90T, S97T, L108M, Q113N, V120R, K124R, Y127Q, P (Shigella flexneri, UniProt Q59909, A167G/A79I/D90T/E243D/E77V/F162N/F223W/F234Y/F53V/G185A/G206R/G63R/I151L/K124R/K178R/L108M/L182F/L227S/L66V/N174Q/N219K/N70Q/P143R/Q113N/S50N/S97T/T239Q/V120R/V213A/W199Y/Y127Q)); assay: ATP hydrolysis, Km for ATP (Example 2), mutant; format: biochemical; details: mutant of Example 1; 50 mM Tris, pH 7.5, 37° C., 30 min, 700 ng enzyme
# Procedure: In order to improve the activity of apyrase and its tolerance to high salt conditions, the inventors mutated the apyrase gene randomly using an error prone PCR method starting from the wild-type Shigella flexneri apyrase DNA sequence (SEQ ID NO: 4) as template. The method incorporates repeated copying of the template at high MgCl2 concentration (5 mM) with Taq polymerase. After every fourth cycle, one fifth of the reaction mixture was transferred to fresh PCR tube and the same process was repeated 22 times to obtain a product that will have randomly mutated nucleotides which can be identified by sequencing. The mutated gene was cloned in pET21a vector. The mutated DNA sequence obtained is presented as SEQ ID NO: 2, containing a total of 31 mutations leading to amino-acid changes (see SEQ ID NO:3 compared to the wild-type amino-acid sequence of SEQ ID NO: 1).
# (§2) A titrated series of ATP solutions from 100 mM to 0.01 mM in 50 mM Tris, pH 7.5 were prepared and incubated with 700 ng of Apyrase (mutant prepared in Example 1 and wild-type Shigella flexneri apyrase as control) for 30 minutes at 37° C. (100 μL reaction). After the incubation, 100 μL AMFAS reagent was added and OD was taken at 630 nm using multimode reader (Biotek instruments). […] Specific activity at 10 mM ATP was determined as 6.3 μmoles/min/mg for the mutant apyrase.
# [3] = tested on: EIEC apyrase variant H116L; assay: Affinity of ATP to EIEC H116L (Table 6); format: biochemical
# Text: as §1
# [4] = biological target: T1, wild-type Shigella flexneri apyrase, SEQ ID NO: 1 (Shigella flexneri, UniProt Q59909); assay: ATP hydrolysis, Km for ATP (Example 2), wild type; format: biochemical; details: 50 mM Tris, pH 7.5, 37° C., 30 min, 700 ng enzyme
# T1 sequence (Q59909 26-246): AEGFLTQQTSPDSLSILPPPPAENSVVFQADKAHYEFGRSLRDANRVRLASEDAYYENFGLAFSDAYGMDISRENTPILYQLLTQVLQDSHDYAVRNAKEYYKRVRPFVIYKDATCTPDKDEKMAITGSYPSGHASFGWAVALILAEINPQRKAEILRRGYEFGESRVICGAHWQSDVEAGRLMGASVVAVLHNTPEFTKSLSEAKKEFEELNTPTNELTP
# Procedure: as §2, with “instruments). The color formation is proportional to the amount of ATP degraded (dephosphorylated to ADP or AMP).” for “instruments).”
# [5] = biological target: Shigella flexneri apyrase (ApiOne, SEQ ID NO: 1) Double mutant L66V/G63R (Shigella flexneri, UniProt Q59909, G63R/L66V); details: read-out: Affinity (Km), ATP, 50 mM Tris-HCl pH 7.5, 37° C., 20 min, 500 ng enzyme
# Procedure: To this 200 μL of Ammonium Molybdate Ferrous Ammonium Sulphate (AMFAS) reagent was added. AMFAS reagent was prepared by mixing equal volumes of reagent A and reagent B, where reagent A comprises of 5% (w/v) ammonium molybdate in 5 N H2SO4 and reagent B contains 1% (w/v) ferrous ammonium sulphate in double-distilled water. The amount of inorganic phosphate formed (product of ATP/ADP hydrolysis) is colorimetrically measured at 630 nm using multi-mode spectrophotometer (Biotek instruments).
# The kinetic curves were plotted and the Michaelis Menten constant (Km) was calculated using GraphPad Prism 5.0 software.
structure (smiles),measurement,setting,value
"Nc1ncnc2c1ncn2[C@@H]1O[C@H](COP(=O)(O)OP(=O)(O)OP(=O)(O)O)[C@@H](O)[C@H]1O [ATP, Adenosine triphosphate]",Km,[1],18.5 µM
same,Km,[2],3600 µM
same,Km,[3],24 µM
same,Km,[4],3300 µM
same,Km,[5],20.7 µM
